Bridge positions count the residues as written; N and C are the ends. Square brackets hold non-standard residues; d marks the D form. Peptide text beside a SMILES is read from it. * marks the point of attachment. Ac6c = NC1(C(=O)O)CCCCC1; Octanoyl = CCCCCCCC(=O)*; AEEA = NCCOCCOCC(=O)O; Aoc = NCCCCCCCC(=O)O; Ahx = NCCCCCC(=O)O; GABA = NCCCC(=O)O
How the values were obtained:
IL-8 = assay: In vitro chemotaxis, inhibition v IL-8; format: cell-based, human; parameters: concentration or dose not given beside the values
Procedure, shortened: (§1)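 Human THP-1 monocytes (10^4-10^6) with agent at varying concentrations in upper trans-well chamber; IL-8 or MCP-1 in lower chamber at a migration-inducing concentration, 37° C for e.g. 4 hours. Migrated cells quantified by MTT (595 nm) against a THP-1 standard curve; cytotoxicity and non-chemokine chemoattractant controls run.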

MCP-1 = assay: In vitro chemotaxis (trans-well migration) v MCP-1; format: cell-based, human
Procedure, shortened: as §1

Compound | v IL-8 inhibition (%) (IL-8) | EC50 (MCP-1) [nM]
CC[C@@H](C)[C@H]1NC(=O)[C@@H](CCC(N)=O)NC(=O)[C@H](N)CSSC[C@H](C(=O)NCCCC(=O)O)NC(=O)[C@@H](CC(C)C)NC(=O)[C@@H](CC(=O)O)NC(=O)[C@H]2CCCN2C(=O)[C@@H](CCCCN)NC(=O)[C@@H](CCC(N)=O)NC(=O)[C@@H](CCCCN)NC(=O)[C@@H](Cc2c[nH]c3ccccc23)NC1=O [Example 142, c(D-Cys-D-Gln-D-Ile-D-Trp-D-Lys-D-Gln-D-Lys-D-Pro-D-Asp-D-Leu-D-Cys)-Gaba-OH] (H-[dC][dQ][dI][dW][dK][dQ][dK][dP][dD][dL][dC][GABA]-OH; disulfide 1-11) | 107.3 | 20
CC[C@@H](C)[C@H]1NC(=O)[C@@H](CCC(N)=O)NC(=O)[C@H](N)CSSC[C@H](C(=O)NCCCCCC(=O)O)NC(=O)[C@@H](CC(C)C)NC(=O)[C@@H](CC(=O)O)NC(=O)[C@H]2CCCN2C(=O)[C@@H](CCCCN)NC(=O)[C@@H](CCC(N)=O)NC(=O)[C@@H](CCCCN)NC(=O)[C@@H](Cc2c[nH]c3ccccc23)NC1=O [Example 143, c(D-Cys-D-Gln-D-Ile-D-Trp-D-Lys-D-Gln-D-Lys-D-Pro-D-Asp-D-Leu-D-Cys)-Ahx-OH] (H-[dC][dQ][dI][dW][dK][dQ][dK][dP][dD][dL][dC][Ahx]-OH; disulfide 1-11) | 103.5 | 30
CC[C@@H](C)[C@H]1NC(=O)[C@@H](CCC(N)=O)NC(=O)[C@H](N)CSSC[C@H](C(=O)N[C@@H](CC(=O)O)C(=O)NCCCCCCCC(=O)O)NC(=O)[C@@H](CC(C)C)NC(=O)[C@@H](CC(=O)O)NC(=O)[C@H]2CCCN2C(=O)[C@@H](CCCCN)NC(=O)[C@@H](CCC(N)=O)NC(=O)[C@@H](CCCCN)NC(=O)[C@@H](Cc2c[nH]c3ccccc23)NC1=O [Example 144, c(D-Cys-D-Gln-D-Ile-D-Trp-D-Lys-D-Gln-D-Lys-D-Pro-D-Asp-D-Leu-D-Cys)-Asp-Aoc-OH] (H-[dC][dQ][dI][dW][dK][dQ][dK][dP][dD][dL][dC]D[Aoc]-OH; disulfide 1-11) | 25.4 | 3000
CC[C@@H](C)[C@H]1NC(=O)[C@@H](CCC(N)=O)NC(=O)[C@H](N)CSSC[C@H](C(=O)N[C@@H](CCC(=O)O)C(=O)NCCCCCCCC(=O)O)NC(=O)[C@@H](CC(C)C)NC(=O)[C@@H](CC(=O)O)NC(=O)[C@H]2CCCN2C(=O)[C@@H](CCCCN)NC(=O)[C@@H](CCC(N)=O)NC(=O)[C@@H](CCCCN)NC(=O)[C@@H](Cc2c[nH]c3ccccc23)NC1=O [Example 145, c(D-Cys-D-Gln-D-Ile-D-Trp-D-Lys-D-Gln-D-Lys-D-Pro-D-Asp-D-Leu-D-Cys)-Glu-Aoc-OH] (H-[dC][dQ][dI][dW][dK][dQ][dK][dP][dD][dL][dC]E[Aoc]-OH; disulfide 1-11) | 23.8 | 200
CCCCCCCC(=O)NCCCC[C@H](NC(=O)[C@@H](CC(=O)O)NC(=O)[C@H]1CSSC[C@@H](N)C(=O)N[C@H](CCC(N)=O)C(=O)N[C@H]([C@H](C)CC)C(=O)N[C@H](Cc2c[nH]c3ccccc23)C(=O)N[C@H](CCCCN)C(=O)N[C@H](CCC(N)=O)C(=O)N[C@H](CCCCN)C(=O)N2CCC[C@@H]2C(=O)N[C@H](CC(=O)O)C(=O)N[C@H](CC(C)C)C(=O)N1)C(=O)O [Example 147, c(D-Cys-D-Gln-D-Ile-D-Trp-D-Lys-D-Gln-D-Lys-D-Pro-D-Asp-D-Leu-D-Cys)-D-Asp-Lys(Nε-octanoyl)-OH] (H-[dC][dQ][dI][dW][dK][dQ][dK][dP][dD][dL][dC][dD]K(Octanoyl)-OH; disulfide 1-11) | 29.0 | 500
CCCCCCCC(=O)NCCCC[C@H](NC(=O)[C@H]1CSSC[C@@H](N)C(=O)N[C@H](CCC(N)=O)C(=O)N[C@H]([C@H](C)CC)C(=O)N[C@H](Cc2c[nH]c3ccccc23)C(=O)N[C@H](CCCCN)C(=O)N[C@H](CCC(N)=O)C(=O)N[C@H](CCCCN)C(=O)N2CCC[C@@H]2C(=O)N[C@H](CC(=O)O)C(=O)N[C@H](CC(C)C)C(=O)N1)C(=O)O [Example 149, c(D-Cys-D-Gln-D-Ile-D-Trp-D-Lys-D-Gln-D-Lys-D-Pro-D-Asp-D-Leu-D-Cys)-Lys(Nε-octanoyl)-OH] (H-[dC][dQ][dI][dW][dK][dQ][dK][dP][dD][dL][dC]K(Octanoyl)-OH; disulfide 1-11) | 106.2 | 66
CCCCCCCC(=O)NCCCC[C@H](NC(=O)[C@@H](CCC(=O)O)NC(=O)[C@H](NC(=O)[C@H]1CSSC[C@@H](N)C(=O)N[C@H](CCC(N)=O)C(=O)N[C@H]([C@H](C)CC)C(=O)N[C@H](Cc2c[nH]c3ccccc23)C(=O)N[C@H](CCCCN)C(=O)N[C@H](CCC(N)=O)C(=O)N[C@H](CCCCN)C(=O)N2CCC[C@@H]2C(=O)N[C@H](CC(=O)O)C(=O)N[C@H](CC(C)C)C(=O)N1)C(C)C)C(=O)O [Example 150, c(D-Cys-D-Gln-D-Ile-D-Trp-D-Lys-D-Gln-D-Lys-D-Pro-D-Asp-D-Leu-D-Cys)-D-Val-D-Glu-Lys(Nε-octanoyl)-OH] (H-[dC][dQ][dI][dW][dK][dQ][dK][dP][dD][dL][dC][dV][dE]K(Octanoyl)-OH; disulfide 1-11) | 100.5 | 33
CCCCCCCC(=O)NCCCC[C@H](NC(=O)COCCOCCNC(=O)[C@H]1CSSC[C@@H](N)C(=O)N[C@H](CCC(N)=O)C(=O)N[C@H]([C@H](C)CC)C(=O)N[C@H](Cc2c[nH]c3ccccc23)C(=O)N[C@H](CCCCN)C(=O)N[C@H](CCC(N)=O)C(=O)N[C@H](CCCCN)C(=O)N2CCC[C@@H]2C(=O)N[C@H](CC(=O)O)C(=O)N[C@H](CC(C)C)C(=O)N1)C(=O)O [Example 151, c(D-Cys-D-Gln-D-Ile-D-Trp-D-Lys-D-Gln-D-Lys-D-Pro-D-Asp-D-Leu-D-Cys)-Doc-Lys(Nε-octanoyl)-OH] (H-[dC][dQ][dI][dW][dK][dQ][dK][dP][dD][dL][dC][AEEA]K(Octanoyl)-OH; disulfide 1-11) | 103.7 | 28
CCCCCCCC(=O)NCCCC[C@@H]1NC(=O)[C@@H](CC(C)C)NC(=O)[C@@H](CC(=O)O)NC(=O)[C@H]2CCCN2C(=O)[C@@H](CCCCN)NC(=O)[C@@H](CCC(N)=O)NC(=O)[C@@H](CCCCN)NC(=O)[C@@H](Cc2c[nH]c3ccccc23)NC(=O)[C@@H]([C@H](C)CC)NC(=O)[C@@H](CCC(N)=O)NC(=O)[C@H](N)CSSC[C@H](C(N)=O)NC1=O [Example 153, c(D-Cys-D-Gln-D-Ile-D-Trp-D-Lys-D-Gln-D-Lys-D-Pro-D-Asp-D-Leu-Lys(Nε-octanoyl)-D-Cys)-NH2] (H-[dC][dQ][dI][dW][dK][dQ][dK][dP][dD][dL]K(Octanoyl)[dC]-NH2; disulfide 1-12) | 4.1 | > 1000
CCCCCCCC(=O)NCCCC[C@@H]1NC(=O)[C@@H](CC(=O)O)NC(=O)[C@H]2CCCN2C(=O)[C@@H](CCCCN)NC(=O)[C@@H](CCC(N)=O)NC(=O)[C@@H](CCCCN)NC(=O)[C@@H](Cc2c[nH]c3ccccc23)NC(=O)[C@@H]([C@H](C)CC)NC(=O)[C@@H](CCC(N)=O)NC(=O)[C@H](N)CSSC[C@H](C(=O)O)NC(=O)[C@@H](CC(C)C)NC1=O [Example 154, c(D-Cys-D-Gln-D-Ile-D-Trp-D-Lys-D-Gln-D-Lys-D-Pro-D-Asp-Lys(Nε-octanoyl)-D-Leu-D-Cys)-OH] (H-[dC][dQ][dI][dW][dK][dQ][dK][dP][dD]K(Octanoyl)[dL][dC]-OH; disulfide 1-12) | 9.8 | > 1000
CC(=O)N[C@H]1CSSC[C@@H](C(N)=O)NC(=O)[C@H](CCC(N)=O)NC(=O)C2(CCCCC2)NC(=O)[C@H](Cc2c[nH]c3ccccc23)NC(=O)[C@H](CCCCN)NC(=O)[C@H](CCC(N)=O)NC(=O)[C@H](CCCCN)NC(=O)[C@@H]2CCCN2C(=O)[C@H](CC(=O)O)NC(=O)[C@H](CC(C)C)NC1=O [Example 155, Ac-c(Cys-Leu-Asp-Pro-Lys-Gln-Lys-Trp-A6c-Gln-Cys)-NH2] (Ac-CLDPKQKW[Ac6c]QC-NH2; disulfide 1-11) | −1.5 | > 1000
CC(=O)N[C@H]1CSSC[C@@H](C(N)=O)NC(=O)[C@H](CCC(N)=O)NC(=O)[C@H](Cc2c[nH]c3ccccc23)NC(=O)[C@H](CCCCN)NC(=O)[C@H](CCC(N)=O)NC(=O)[C@H](CCCCN)NC(=O)[C@@H]2CCCN2C(=O)[C@H](CC(=O)O)NC(=O)C2(CCCCC2)NC1=O [Example 156, Ac-c(Cys-A6c-Asp-Pro-Lys-Gln-Lys-Trp-Gln-Cys)-NH2] (Ac-C[Ac6c]DPKQKWQC-NH2; disulfide 1-10) | 3.1 | > 1000
CC[C@H](C)[C@@H]1NC(=O)[C@H](Cc2c[nH]c3ccccc23)NC(=O)[C@H](CCCCN)NC(=O)[C@H](CCC(N)=O)NC(=O)[C@H](CCCCN)NC(=O)[C@@H](NC(C)=O)CSSC[C@@H](C(=O)N2CCC[C@@H]2C(=O)N[C@H](CC(=O)O)C(=O)N[C@H](CC(C)C)C(N)=O)NC(=O)[C@H](CCC(N)=O)NC1=O [Example 157, Ac-c(Cys-Lys-Gln-Lys-Trp-Ile-Gln-Cys)-D-Pro-D-Asp-D-Leu-NH2] (Ac-CKQKWIQC[dP][dD][dL]-NH2; disulfide 1-8) | −15 | > 1000
CC[C@H](C)[C@@H]1NC(=O)[C@H](Cc2c[nH]c3ccccc23)NC(=O)[C@H](CCCCN)NC(=O)[C@H](CCC(N)=O)NC(=O)[C@H](CCCCN)NC(=O)[C@@H]2CCCN2C(=O)[C@@H](NC(C)=O)CSSC[C@@H](C(=O)N[C@H](CC(=O)O)C(=O)N[C@H](CC(C)C)C(N)=O)NC(=O)[C@H](CCC(N)=O)NC1=O [Example 158, Ac-c(Cys-Pro-Lys-Gln-Lys-Trp-Ile-Gln-Cys)-D-Asp-D-Leu-NH2] (Ac-CPKQKWIQC[dD][dL]-NH2; disulfide 1-9) | −17.9 | > 1000

From US20110038885A1, “CHEMOKINE ANALOGS” (priority 2007, published 2011)
